Measured values taken from US8969390B2, “Composition containing sorbitan monocaprylate and antimicrobial substances” (Clariant Finance (BVI) Limited, priority 2009, dated 2015).

Experiments:
[1] = tested on: Pseudomonas aeruginosa, Staphylococcus aureus, Candida albicans and Aspergillus brasiliensis; test: Challenge test according to Ph. Eur. Chapter 5.1.3, overall preservation (all test organisms); assay type: cell-based; settings: formulation A (cream)
Protocol: (§1) The following examples show results of challenge tests that were carried out according to the requirements of Ph. Eur. Chapter 5.1.3. The following test organisms are used here as representatives for microorganisms: Pseudomonas aeruginosa (gram-negative; abbreviated below as “P. a.”), Staphylococcus aureus (gram-positive; abbreviated below as “St. a.”), Candida albicans (yeast fungus; abbreviated below as “C. a.”) and Aspergillus brasiliensis (mold fungus; abbreviated below as “A. b.”). In a challenge test, a cosmetic, dermatological or pharmaceutical formulation is accurately considered as adequately preserved if all four test organisms are passed at least with a B criterion. An A criterion means an outstanding preservation, a B criterion, means an adequate preservation and with an F criterion the test is considered overall as not passed. As a comparison, an unpreserved sample of the respective formulation is additionally tested. The further abbreviations SC=sorbitan monocaprylate, Octopirox®=piroctone olamine apply below.
(§2) The assignment of the A, B and F criteria is directed by the level of the microorganism count reduction within a fixed time interval, in which only the logarithmic reduction is considered.

Aspergillus brasiliensis = test: Challenge test according to Ph. Eur. Chapter 5.1.3, Aspergillus brasiliensis; assay type: cell-based; settings: formulation B (shampoo), use concentration 0.05% piroctone olamine
Protocol: as §1, §2

O=C(O)c1ccccc1 [Benzoic acid, benzoic acid, reference compound]
adequate preservation of formulation A ([1]; 0.4% benzoic acid as individual antimicrobial active ingredient): does not suffice

Cc1cc(CC(C)CC(C)(C)C)n(O)c(=O)c1.NCCO (stereo not drawn) [Octopirox ®, piroctone olamine]
protection of formulation B against growth of mold fungi (Aspergillus brasiliensis): cannot adequately protect
adequate preservation of formulation A ([1]; use concentration 0.05% piroctone olamine): cannot be preserved adequately
